Measured values: ChEMBL document CHEMBL4321855, “Targeting CXCR1/2: The medicinal potential as cancer immunotherapy agents, antagonists research highlights and challenges ahead” (Eur J Med Chem, 2020)
Each block holds one molecule with its values, some of them ahead of it.

Columns and labels:
[1] = molecular target: T1, C-X-C chemokine receptor type 2 (Homo sapiens, UniProt P25025); test: Antagonist activity at CXCR2 (unknown origin)
T1 sequence (P25025 whole entry): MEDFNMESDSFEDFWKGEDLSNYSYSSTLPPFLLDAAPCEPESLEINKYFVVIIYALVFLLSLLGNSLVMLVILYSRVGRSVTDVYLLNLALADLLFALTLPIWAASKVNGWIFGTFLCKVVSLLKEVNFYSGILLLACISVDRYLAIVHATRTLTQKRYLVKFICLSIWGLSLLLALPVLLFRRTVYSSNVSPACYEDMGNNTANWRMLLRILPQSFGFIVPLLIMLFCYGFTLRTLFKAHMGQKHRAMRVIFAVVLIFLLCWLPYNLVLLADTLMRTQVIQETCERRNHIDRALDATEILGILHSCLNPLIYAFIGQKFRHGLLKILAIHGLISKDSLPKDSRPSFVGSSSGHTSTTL

SK-OV-3 = test: Antitumor activity against human SKOV3 cells xenografted in athymic Nu/Nu mouse assessed as reduction in tumor volume at 10 mg/kg/day, ip co-treated with sorafenib 30 mg/kg, po relative to sorafenib alone; type: functional; set-up: scale not given: the % may be the effect or the level left
Homo sapiens [2] = organism: Homo sapiens; test: Selectivity ratio of IC50 for displacement of [125I]IL-8 from CXCR1 (unknown origin) to IC50 for displacement of [125I]IL-8 from CXCR2 (unknown origin)
[3] = molecular target: T1, C-X-C chemokine receptor type 2; test: Antagonist activity at GFP-tagged CXCR2 (unknown origin) expressed in 293T cells assessed as suppression of IL-8-induced inhibition of forskolin-stimulated cAMP accumulation preincubated for 10 mins followed by IL-8 addition and measured after 10 mins by cAMP assay; type: functional, cell-based
[4] = molecular target: T1, C-X-C chemokine receptor type 2; test: Antagonist activity at CXCR2 (unknown origin) expressed in human U2OS cells cp-expressing betaarrestin-2/TEV protease and beta lactamase assessed as effect on beta-arrestin2 recruitment preincubated for 30 mins followed by IL-8 addition and further incubated for 5 hrs subsequently adding CCF4-AM staining and measured after 2 hrs by Tango assay; type: cell-based
A375-SM [5] = test: Antitumor activity against human A375SM cells xenografted in athymic nude mice assessed as reduction in tumor volume at 100 mg/kg, po for 21 days; type: functional
A375-SM [6] = test: Antitumor activity against human A375SM cells xenografted in athymic nude mice assessed as reduction in blood vessels formation at 100 mg/kg, po for 21 days and measured on day 50 by immunohistochemistry relative to control; type: functional; set-up: scale not given: the % may be the effect or the level left
[7] = molecular target: T1, C-X-C chemokine receptor type 2; test: Antagonist activity at CXCR2 (unknown origin) stably expressed in HEK293 cells co-expressing Galpha16 assessed as reduction in IL-8-induced intracellular calcium change incubated for 10 mins by Fluo-4AM dye based fluorescence assay; type: functional, cell-based
[8] = molecular target: T2, C-X-C chemokine receptor type 1 (Homo sapiens, UniProt P25024); test: Antagonist activity at CXCR1 (unknown origin) stably expressed in HEK293 cells co-expressing Galpha16 assessed as reduction in IL-8-induced intracellular calcium change incubated for 10 mins by Fluo-4AM dye based fluorescence assay; type: functional, cell-based
T2 sequence (P25024 whole entry): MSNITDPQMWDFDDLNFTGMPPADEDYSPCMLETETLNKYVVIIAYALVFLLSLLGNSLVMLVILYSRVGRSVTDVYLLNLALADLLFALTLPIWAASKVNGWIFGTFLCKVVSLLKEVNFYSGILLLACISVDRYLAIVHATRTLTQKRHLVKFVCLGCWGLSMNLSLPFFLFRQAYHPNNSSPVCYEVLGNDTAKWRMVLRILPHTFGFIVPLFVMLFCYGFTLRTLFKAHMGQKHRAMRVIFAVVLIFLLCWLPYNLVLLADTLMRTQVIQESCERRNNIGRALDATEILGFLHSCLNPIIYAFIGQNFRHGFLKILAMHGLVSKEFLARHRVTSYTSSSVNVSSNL

Homo sapiens [9] = organism: Homo sapiens; test: Selectivity ratio of IC50 for antagonist activity at CXCR1 (unknown origin) stably expressed in HEK293 cells co-expressing Galpha16 to antagonist activity at CXCR2 (unknown origin) stably expressed in HEK293 cells co-expressing Galpha16; type: cell-based
[10] = molecular target: T3, C-X-C chemokine receptor type 2 (Homo sapiens) (UniProt P25025); test: Displacement of [125I]-IL-8 from human CXCR2 expressed in CHO cells membrane at 20 uM relative to control; type: cell membranes
T3 sequence (whole entry): T1 sequence (P25025 whole entry)

[11] = molecular target: T1, C-X-C chemokine receptor type 2; test: Displacement of [125I]IL-8 from human CXCR2 expressed in CHO cells; type: cell-based
[12] = Oral bioavailability in rat; type: ADME, organism-based; conditions: in vivo
[13] = molecular target: T1, C-X-C chemokine receptor type 2; test: Antagonist activity at CXCR2 in human neutrophils assessed as reduction in GROalpha stimulated intracellular calcium mobilisation by FLIPR assay; type: functional, cell-based
[14] = molecular target: T1, C-X-C chemokine receptor type 2; test: Antagonist activity at CXCR2 in human U2OS cells assessed as effect on beta-arrestin2 recruitment by CCF4-AM staining based Tango assay; type: cell-based
[15] = molecular target: T2, C-X-C chemokine receptor type 1; test: Displacement of [125I]IL-8 from CXCR1 in human neutrophils incubated for 3 hrs by gamma counting method
[16] = molecular target: T1, C-X-C chemokine receptor type 2; test: Displacement of [125I]IL-8 from CXCR2 in human neutrophils incubated for 3 hrs by gamma counting method

IC50 [1]: 0.00012 µM
SMILES: CCN(CC)Nc1c(Nc2cccc(C(=O)N(C)C)c2O)c(=O)c1=O

SMILES: O=C(Nc1ccc([N+](=O)[O-])cc1O)Nc1ccccc1Br
Activity (SK-OV-3): 42%

SMILES: N#Cc1ccc(NC(=O)Nc2ccccc2Br)c(O)c1Br
Ratio IC50 (Homo sapiens [2]): 57

IC50 [1]: 0.017 µM
SMILES: Cc1ccc([C@H](Nc2c(Nc3cccc(S(=O)(=O)N4CCN(C)CC4)c3O)c(=O)c2=O)[C@H]2CCCS2)o1

IC50 [3]: 7.8 µM
SMILES: CCSc1nnc2n(-c3ccccc3)c(=O)c3c4c(sc3n12)CCC[C@H]4C

SMILES: CC(=O)c1c(C)oc2c1cc(NS(=O)(=O)c1ccc(C(C)(C)C)cc1)c1ccccc12
IC50 [4]: 7.6 µM

SMILES: CC[C@@H](Nc1c(Nc2cccc(C(=O)N(C)C)c2O)c(=O)c1=O)c1ccc(C)o1 [NAVARIXIN ANHYDROUS]
fold change (FC) (A375-SM [5]): 4.5 | Activity (A375-SM [6]): 45%

IC50 [7]: 0.048 µM | IC50 [8]: 2.9 µM
SMILES: O=C(c1cccc(Nc2c(NC3C[C@@H]4CC[C@H]3C4)c(=O)c2=O)c1O)N1CCCC1 (stereo not given in full)
Ratio IC50 (Homo sapiens [9]): 60

SMILES: O=C(Nc1ccccc1)Nc1ccc([N+](=O)[O-])cc1O
Ratio IC50 (Homo sapiens [2]): 433

inhibition [10]: 93%
SMILES: CS(=O)(=O)c1ccc(C(=O)Nc2ccc(F)cc2)c[n+]1[O-]

IC50 [4]: 2.5 µM
SMILES: C[C@@H](NC1=C(C(=O)Nc2ccc(Cl)c(C(F)(F)F)c2)C(=O)CC(C)(C)C1)c1ccccc1

IC50 [11]: 0.002 µM
SMILES: CC[C@@H](Nc1c(Nc2ccnc(C(=O)N(C)C)c2O)c(=O)c1=O)c1ccc(C)o1

bioavailability [12]: 61% | IC50 [13]: 0.048 µM
SMILES: Sc1nc(-c2ccccc2Cl)nn1Cc1cccc(Cl)c1

IC50 [14]: 6.3 µM
SMILES: CC1(C)CC(=O)C(C(=S)Nc2ccccc2)=C(NCc2ccccc2)C1

IC50 [15]: 0.23 µM | IC50 [16]: 0.03 µM
SMILES: CCN(CC)CCCCNc1nc2cc(Cl)c(Cl)cc2nc1-c1cc2ccccc2o1
